Measurements published in US12655116B2, “Substituted isophthalic acid diamides” (Bayer Aktiengesellschaft, priority 2020, dated 2026).

Assays:
[1] = system: AVEFA; experiment: Pre-emergence herbicidal action against AVEFA; format: in vivo, Avena fatua
Method in brief: (§1)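 Pre-emergence soil-surface spray of formulated compound (WP or EC; 600 to 800 l/ha; 0.2% wetting agent) over seeds sown in sandy loam. After 3 weeks under greenhouse conditions, damage is estimated visually in percent against untreated plants.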

[2] = system: VIOTR; experiment: Pre-emergence herbicidal action against VIOTR; format: in vivo, Viola tricolor
Method in brief: as §1

[3] = system: LOLRI; experiment: Pre-emergence herbicidal action against LOLRI; format: in vivo, Lolium rigidum; settings: 80 g/ha
Method in brief: as §1

[4] = system: AMARE; experiment: Pre-emergence herbicidal action against AMARE; format: in vivo, Amaranthus retroflexus
Method in brief: as §1

[5] = system: SETVI; experiment: Post-emergence herbicidal action against SETVI; format: in vivo, Setaria viridis
Method in brief: (§2)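 Greenhouse plants in sandy loam were sprayed at the one-leaf stage, 2 to 3 weeks after sowing, with WP or EC formulations as aqueous suspension or emulsion (600 to 800 l/ha water, 0.2% wetting agent). Visual damage was scored about 3 weeks later versus untreated controls, 0% = like control, 100% = dead.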

[6] = system: AMARE; experiment: Post-emergence herbicidal action against AMARE; format: in vivo, Amaranthus retroflexus; settings: 20 g/ha, visual assessment about 3 weeks after treatment, 100% = plants have died, 0% = like control plants
Method in brief: as §2

[7] = system: ABUTH; experiment: Post-emergence herbicidal action against ABUTH; format: in vivo, Abutilon theophrasti; settings: Abutilon theophrasti, 504 h, visual assessment about 3 weeks after treatment vs untreated controls
Method in brief: as §2

[8] = system: ALOMY; experiment: Pre-emergence herbicidal action against ALOMY; format: in vivo, Alopecurus myosuroides
Method in brief: as §1

[9] = system: PHBPU; experiment: Pre-emergence herbicidal action against PHBPU; format: in vivo, Pharbitis purpurea; settings: dosage 80 g/ha
Method in brief: as §1

[10] = system: ABUTH; experiment: Pre-emergence herbicidal action against ABUTH; format: in vivo, Abutilon theophrasti
Method in brief: as §1

[11] = system: ALOMY; experiment: Post-emergence herbicidal action against ALOMY; format: in vivo, Alopecurus myosuroides; settings: Alopecurus myosuroides, 504 h, dosage 20 g/ha, visual assessment about 3 weeks after treatment vs untreated controls
Method in brief: as §2

[12] = system: ECHCG; experiment: Post-emergence herbicidal action against ECHCG; format: in vivo, Echinochloa crus-galli
Method in brief: as §2

[13] = system: VIOTR; experiment: Post-emergence herbicidal action against VIOTR; format: in vivo, Viola tricolor
Method in brief: as §2

[14] = system: MATIN; experiment: Pre-emergence herbicidal action against MATIN; format: in vivo, Matricaria inodora
Method in brief: as §1

[15] = system: SETVI; experiment: Pre-emergence herbicidal action against SETVI; format: in vivo, Setaria viridis
Method in brief: as §1

[16] = system: ECHCG; experiment: Pre-emergence herbicidal action against ECHCG; format: in vivo, Echinochloa crus-galli; settings: 80 g/ha
Method in brief: as §1

[17] = system: VERPE; experiment: Post-emergence herbicidal action against VERPE; format: in vivo, Veronica persica; settings: 20 g/ha
Method in brief: as §2

[18] = system: DIGSA; experiment: Post-emergence herbicidal action against DIGSA; format: in vivo, Digitaria sanguinalis; settings: 20 g/ha
Method in brief: as §2

[19] = system: PHBPU; experiment: Post-emergence herbicidal action against PHBPU; format: in vivo, Pharbitis purpurea
Method in brief: as §2

[20] = system: DIGSA; experiment: Pre-emergence herbicidal action against DIGSA; format: in vivo, Digitaria sanguinalis
Method in brief: as §1

[21] = 20 g/ha, scored visually after 3 weeks, 100% = plants have died, 0% = like control plants
[22] = 80 g/ha, scored visually after 3 weeks vs untreated controls (100% = plants have died, 0% = like control plants)

CC(C)NC(=O)c1c(Br)ccc(C(=O)Nc2nnnn2C)c1Cl [Example 1-185]
100%: pest or weed control at 80 g/ha ([1]; Avena fatua, 504 h, 80 g/ha, pre-emergence) | pest or weed control at 80 g/ha ([2]; Viola tricolor, 504 h, dosage 80 g/ha) | pest or weed control at 20 g/ha ([4]; Amaranthus retroflexus, 504 h, 20 g/ha, scored visually after 3 weeks vs untreated controls, 100% = plants have died, 0% = like control plants) | pest or weed control at 80 g/ha ([4]; Amaranthus retroflexus, 504 h, 80 g/ha, scored visually after 3 weeks vs untreated controls, 100% = plants have died, 0% = like control plants) | pest or weed control at 20 g/ha ([5]; Setaria viridis, 504 h, dosage 20 g/ha) | pest or weed control at 20 g/ha ([6]; Amaranthus retroflexus, 504 h) | pest or weed control at 80 g/ha ([8]; Alopecurus myosuroides, 504 h, 80 g/ha, pre-emergence, scored visually after 3 weeks vs untreated controls (100% = plants have died, 0% = like control plants)) | pest or weed control at 80 g/ha ([10]; Abutilon theophrasti, 504 h, 80 g/ha, scored visually after 3 weeks vs untreated controls (100% = plants have died, 0% = like control plants)) | pest or weed control at 20 g/ha ([10]; Abutilon theophrasti, 504 h, dosage 20 g/ha, scored visually after 3 weeks vs untreated controls, 100% = plants have died, 0% = like control plants, read-out: Pre-emergence action against ABUTH (herbicidal activity in percent)) | pest or weed control at 20 g/ha ([12]; Echinochloa crus-galli, 504 h, dosage 20 g/ha) | pest or weed control at 20 g/ha ([14]; Tripleurospermum inodorum, 504 h, dosage 20 g/ha) | pest or weed control at 80 g/ha ([14]; Tripleurospermum inodorum, 504 h, dosage 80 g/ha) | pest or weed control at 80 g/ha ([15]; Setaria viridis, 504 h, dosage 80 g/ha) | pest or weed control at 80 g/ha ([16]; Echinochloa crus-galli, 504 h)
90%: pest or weed control at 80 g/ha ([3]; Lolium rigidum, 504 h) | pest or weed control at 20 g/ha ([7]; dosage 20 g/ha) | pest or weed control at 20 g/ha ([8]; Alopecurus myosuroides, pre-emergence, 504 h, 20 g/ha, scored visually after 3 weeks, 100% = plants have died, 0% = like control plants) | pest or weed control at 20 g/ha [11] | pest or weed control at 5 g/ha ([12]; Echinochloa crus-galli, 504 h, dosage 5 g/ha)
80%: pest or weed control at 20 g/ha ([2]; Viola tricolor, 504 h, dosage 20 g/ha) | pest or weed control at 5 g/ha ([5]; Setaria viridis, 504 h, dosage 5 g/ha) | pest or weed control at 5 g/ha ([7]; dosage 5 g/ha) | pest or weed control at 80 g/ha ([9]; Ipomoea purpurea, 504 h) | pest or weed control at 20 g/ha ([13]; Viola tricolor, 504 h, 20 g/ha) | pest or weed control at 20 g/ha ([17]; Veronica persica, 504 h)

Cn1nnnc1NC(=O)c1ccc(C(F)(F)F)c(C(=O)NCC(F)F)c1Cl [Example 1-134]
90%: Pre-emergence action against AVEFA in % ([1]; 80 g/ha, pre-emergence) | Pre-emergence action against VIOTR in % ([2]; dosage 20 g/ha) | Post-emergence action against SETVI in % ([5]; dosage 5 g/ha) | Post-emergence action against SETVI in % ([5]; dosage 20 g/ha) | Post-emergence action against DIGSA [18] | Post-emergence action at 20 g/ha against AMARE in % [6] | Post-emergence action against PHBPU in % ([19]; dosage 20 g/ha) | Pre-emergence action against ABUTH (herbicidal activity) [10, 22] | Pre-emergence action against DIGSA in % ([20]; dosage 20 g/ha) | Post-emergence action against ECHCG in % ([12]; dosage 20 g/ha) | Post-emergence action against VIOTR in % ([13]; 5 g/ha) | Post-emergence action against VIOTR in % ([13]; 20 g/ha) | Pre-emergence action against MATIN in % ([14]; dosage 20 g/ha) | Pre-emergence action against SETVI in % ([15]; dosage 20 g/ha)
100%: Pre-emergence action against VIOTR in % ([2]; dosage 80 g/ha) | Pre-emergence action against AMARE in % ([4]; 20 g/ha, scored visually after 3 weeks vs untreated controls, 100% = plants have died, 0% = like control plants) | Pre-emergence action against AMARE in % [4, 22] | Pre-emergence action against ALOMY (herbicidal activity) ([8]; 80 g/ha, pre-emergence, scored visually after 3 weeks vs untreated controls (100% = plants have died, 0% = like control plants)) | Pre-emergence action against DIGSA in % ([20]; dosage 80 g/ha) | Pre-emergence action against MATIN in % ([14]; dosage 80 g/ha) | Pre-emergence action against SETVI in % ([15]; dosage 80 g/ha) | Pre-emergence action against ECHCG in % [16]
80%: Pre-emergence action against AVEFA [1, 21] | Pre-emergence action against LOLRI in % [3] | Post-emergence action against PHBPU in % ([19]; dosage 5 g/ha) | Pre-emergence action against ALOMY [8, 21] | Pre-emergence action against PHBPU in % [9] | Post-emergence action against VERPE in % [17]
